# Results from patent publication US7189731B2, “Substituted 7-azaquinazoline compounds useful as p38 kinase inhibitors” (Roche Palo Alto LLC, priority 2003, dated 2007).
# Columns and labels:
# p38 MAP kinase = molecular target: T1, p38 MAP kinase (Homo sapiens, UniProt Q16539); experiment: Inhibition of p38 (MAP) Kinase-In Vitro Assay; type: biochemical; details: approximate p38 inhibitory activities; concentration causing 50% inhibition of the p38 enzyme; γ-33P-ATP transfer to MBP; read-out: IC50 μM (P38 MAP KINASE E-03)
# T1 construct: made in house; host or cells: E. coli (co-expressed with SEK-1 and MEKK)
# Experimental: The p-38 MAP kinase inhibitory activity of compounds of this invention in vitro was determined by measuring the transfer of the y-phosphate from γ-^33P-ATP by p38 kinase to Myelin Basic Protein (MBP), using the a minor modification of the method described in Ahn et al., J. Biol. Chem., Vol. 266 (7), 4220–4227 (1991).
# The phosphorylated form of the recombinant p38 MAP kinase was expressed with SEK-1 and MEKK in E. Coli (see Khokhlatchev et al., J. Biol. Chem. Vol. 272(17), pp. 11057–11062 (1997)), and then purified by affinity chromatography using a Nickel column.
# The phosphorylated p38 MAP kinase was diluted in kinase buffer (20 mM 3-(N-morpholino)propanesulfonic acid, pH 7.2, 25 mM β-glycerol phosphate, 5 mM ethylene glycol-bis(beta-aminoethyl ether)-N,N,N′,N′-tetraacetic acid, 1 mM sodium vanadate, 1 mM dithiothreitol, 40 mM magnesium chloride). Test compound dissolved in DMSO or only DMSO (control) was added, and the samples were incubated for 10 min. at 30° C. The kinase reaction was initiated by the addition of a substrate cocktail containing MBP and γ-^33P-ATP. After incubating for an additional 20 min. at 30° C., the reaction was terminated by adding 0.75% phosphoric acid. The phosphorylated MBP was then separated from the residual γ-^33P-ATP using a phosphocellulose membrane (Millipore, Bedfrod, Mass.) and quantitated using a scintillation counter (Packard, Meriden, Conn.).
# T1 sequence (Q16539 whole entry): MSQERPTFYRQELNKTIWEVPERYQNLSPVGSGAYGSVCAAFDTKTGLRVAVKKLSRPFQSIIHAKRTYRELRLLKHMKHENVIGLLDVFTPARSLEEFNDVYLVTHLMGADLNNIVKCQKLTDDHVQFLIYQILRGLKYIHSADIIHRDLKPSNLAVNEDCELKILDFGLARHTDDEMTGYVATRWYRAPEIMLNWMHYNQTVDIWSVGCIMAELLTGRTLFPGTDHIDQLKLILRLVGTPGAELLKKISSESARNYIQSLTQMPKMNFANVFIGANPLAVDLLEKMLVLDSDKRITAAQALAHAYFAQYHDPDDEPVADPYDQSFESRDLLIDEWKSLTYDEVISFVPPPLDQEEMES
Compound,melting point,IC50 (p38 MAP kinase)
"CS(=O)(=O)N1CCC(Nc2ncc3cc(Oc4ccc(F)cc4F)ncc3n2)CC1 [Example 1, [6-(2,4-Difluoro-phenoxy)-pyrido[3,4-d]pyrimidin-2-yl]-(1-methanesulfonyl-piperidin-4-yl)-amine]",209.9 to 211.9 °C,< 0.05 µM
"CC(C)Nc1ncc2cc(Oc3ccc(F)cc3F)ncc2n1 [Example 2, [6-(2,4-Difluoro-phenoxy)-pyrido[3,4-d]py-rimidin-2-yl]-iso-propyl-amine]",–,< 0.5 µM
"Fc1ccc(Oc2cc3cnc(NC4CCOCC4)nc3cn2)c(F)c1 [Example 4, [6-(2,4-Difluoro-phenoxy)-pyrido[3,4-d]py-rimidin-2-yl]-(tet-rahydro-pyran-4-yl)-amine]",–,< 0.3 µM
